Key:
[1] = biological target: T1, Recombinant human His6-USP1/His6-UAF1 complex protein (Homo sapiens, UniProt O94782); test: In vitro inhibitory activity against USP1 (Ubiquitin Rhodamine 110 fluorescence detection, 384-well plate); type: biochemical; settings: Ub-Rho substrate, 1 hour pre-incubation, read after 30 minutes
T1 construct: His6; purchased R&D E-568-050
Summary of the method: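 Compounds, kept as 50 mM DMSO stocks, were acoustically dispensed into modified Tris buffer. Inhibition of recombinant human His6-USP1/His6-UAF1 was read by fluorescence from cleavage of Ub-Rho110 substrate.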

[2] = tested on: MDA-MB-436; test: CTG experiment for cell viability (CellTiter-Glo, 96-well plate, 7 days); type: cell-based; settings: Homo sapiens, MDA-MB-436, 168 h, MDA-MB-436 cells, 7 days culture with compound
Summary of the method: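 Viability was read by CellTiter-Glo luminescence after 10 min at room temperature, once the compound-containing medium had been replaced with PBS. Before that, MDA-MB-436 cells grown in DMEM were exposed to compounds for 7 days at 37°C. Curve fitting followed the enzyme assay method.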

T1 sequence (O94782 whole entry): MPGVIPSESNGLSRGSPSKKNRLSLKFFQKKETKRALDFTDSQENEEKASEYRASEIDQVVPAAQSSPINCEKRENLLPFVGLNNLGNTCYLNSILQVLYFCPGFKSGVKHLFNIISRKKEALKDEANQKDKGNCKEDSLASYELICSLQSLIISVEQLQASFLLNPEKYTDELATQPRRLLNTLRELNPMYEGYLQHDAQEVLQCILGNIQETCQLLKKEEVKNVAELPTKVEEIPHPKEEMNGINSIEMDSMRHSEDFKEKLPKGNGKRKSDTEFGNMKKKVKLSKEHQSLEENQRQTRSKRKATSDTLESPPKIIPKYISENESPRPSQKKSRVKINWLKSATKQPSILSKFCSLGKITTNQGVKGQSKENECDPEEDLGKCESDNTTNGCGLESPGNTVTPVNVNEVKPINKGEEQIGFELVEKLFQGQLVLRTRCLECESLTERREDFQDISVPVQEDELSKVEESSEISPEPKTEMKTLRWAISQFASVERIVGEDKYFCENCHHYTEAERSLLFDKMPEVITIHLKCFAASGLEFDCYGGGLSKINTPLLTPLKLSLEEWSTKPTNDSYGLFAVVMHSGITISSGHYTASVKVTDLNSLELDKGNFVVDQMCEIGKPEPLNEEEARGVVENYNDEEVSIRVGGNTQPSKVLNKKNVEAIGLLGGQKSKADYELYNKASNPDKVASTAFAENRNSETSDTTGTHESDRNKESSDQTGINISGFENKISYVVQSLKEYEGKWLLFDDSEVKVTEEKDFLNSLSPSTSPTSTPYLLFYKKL
T1 sequence (Q8TAF3 whole entry partner): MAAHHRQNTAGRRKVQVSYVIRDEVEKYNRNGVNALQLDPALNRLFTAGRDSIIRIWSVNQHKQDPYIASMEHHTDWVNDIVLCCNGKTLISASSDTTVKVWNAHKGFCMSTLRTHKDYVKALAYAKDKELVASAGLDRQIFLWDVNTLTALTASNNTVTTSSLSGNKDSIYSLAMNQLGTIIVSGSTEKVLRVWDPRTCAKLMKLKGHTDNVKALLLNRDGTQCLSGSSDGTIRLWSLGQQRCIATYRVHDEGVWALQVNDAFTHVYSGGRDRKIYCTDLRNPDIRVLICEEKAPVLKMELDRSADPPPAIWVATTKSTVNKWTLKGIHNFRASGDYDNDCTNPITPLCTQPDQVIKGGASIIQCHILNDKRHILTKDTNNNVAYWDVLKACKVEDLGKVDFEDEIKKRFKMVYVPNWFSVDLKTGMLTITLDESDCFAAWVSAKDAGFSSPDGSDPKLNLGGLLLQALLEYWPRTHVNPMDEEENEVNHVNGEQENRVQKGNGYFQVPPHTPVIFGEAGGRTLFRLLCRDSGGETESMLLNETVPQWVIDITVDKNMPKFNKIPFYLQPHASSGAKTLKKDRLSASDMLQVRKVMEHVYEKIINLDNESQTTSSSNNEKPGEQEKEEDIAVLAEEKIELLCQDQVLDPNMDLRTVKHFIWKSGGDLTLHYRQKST

Question: Which results are given for `COc1cc(CNc2nc(-c3ccccc3C3CC3)nc3ccoc23)ccc1-c1nc(C(F)(F)F)cn1C` [Example 176, 2-(2-Cyclopropylphenyl)-N-(3-methoxy-4-(1-methyl-4-(trifluoromethyl)-1H-imidazol-2-yl)benzyl)furo[3,2-d]pyrimidin-4-amine]?
Answer: IC50 [1]: 4 nM; IC50 [2]: 187 nM

Question: How did the IC50 [1] turn out when `COc1cnc(-c2c(OC)cnn2C(C)C)nc1NCC1CCN(c2nc(C(F)(F)F)cn2C)CC1` [Example 179, 2-(1-Isopropyl-4-methoxy-1H-pyrazol-5-yl)-5-methoxy-N-((1-(1-methyl-4-(trifluoromcthyl)-1H-imidazol-2-yl)piperidin-4-yl)methyl)pyrimidin-4-amine] was run?
Answer: The IC50 was 56 nM.

Question: And the IC50 [2]?
Answer: The IC50 was 197 nM.

Question: How did the IC50 [1] turn out when `COc1cnc(-c2c(OC)cnn2C(C)C)nc1NCc1ccc(-c2nc(C(F)(F)F)cn2C)cc1` [Example 180, 2-(1-Isopropyl-4-methoxy-1H-pyrazol-5-yl)-5-methoxy-N-(4-(1-methyl-4-(trifluoromethyl)-1H-imidazol-2-yl)benzyl)pyrimidin-4-amine] was run?
Answer: The IC50 was 15 nM.

Question: What about the IC50 [2] of the same molecule?
Answer: The IC50 was 123 nM.

Question: `COc1cnn(C(C)C)c1-c1nc(NCc2ccc(-n3nc(C(F)(F)F)cc3C)cc2)c2occc2n1` [Example 182, 2-(1-Isopropyl-4-methoxy-1H-pyrazol-5-yl)-N-(4-(5-methyl-3-(trifluoromethyl)-1H-pyrazol-1-yl)benzyl)furo[3,2-d]pyrimidin-4-amine] was tested. Which IC50 [1] did it give?
Answer: The IC50 was 7.4 nM.

Question: And the IC50 [2]?
Answer: The IC50 was 6 nM.

Question: How did the IC50 [1] turn out when `COc1cnn(C2CC2)c1-c1ncc(OC(F)F)c(NCc2ccc(-c3nc(C(F)(F)F)cn3C)cc2)n1` [Example 185, 2-(1-Cyclopropyl-4-methoxy-1H-pyrazol-5-yl)-5-(difluoromethoxy)-N-(4-(1-methyl-4-(trifluoromethyl)-1H-imidazol-2-yl)benzyl)pyrimidin-4-amine] was run?
Answer: The IC50 was 9.8 nM.

Question: What about the IC50 [2] of the same molecule?
Answer: Its IC50 is 120 nM.

Question: Which IC50 [1] does the source give for `Cc1noc(C(C)C)c1-c1nc(NCc2ccc(-c3ccccn3)cc2)c2occc2n1` [Example 189, 2-(5-Isopropyl-3-methylisoxazol-4-yl)-N-(4-(pyridin-2-yl)benzyl)furo[3,2-d]pyrimidin-4-amine] here?
Answer: Its IC50 is 16 nM.

Question: And the IC50 [2]?
Answer: Its IC50 is 307 nM.

Question: How did the IC50 [1] turn out when `Cc1noc(C(C)C)c1-c1ncc(OC(F)F)c(NCc2ccc(-c3nc(C(F)(F)F)cn3C)cc2)n1` [Example 190, 5-(Difluoromethoxy)-2-(5-isopropyl-3-methylisoxazol-4-yl)-N-(4-(1-methyl-4-(trifluoromethyl)-1H-imidazol-2-yl)benzyl)pyrimidin-4-amine] was run?
Answer: The IC50 was 33 nM.

Question: What about the IC50 [2] of the same molecule?
Answer: The IC50 was 339 nM.

Question: What does the source list for `COc1cnc(-c2c(Cl)cnn2C2CC2)nc1N(C)Cc1ccc(-c2nc(C(F)(F)F)cn2C)cc1` [Example 191, 2-(4-Chloro-1-cyclopropyl-1H-pyrazol-5-yl)-5-methoxy-N-methyl-N-(4-(1-methyl-4-(trifluoromethyl)-1H-imidazol-2-yl)benzyl)pyrimidin-4-amine]?
Answer: IC50 [1]: 4.3 nM; IC50 [2]: 10.7 nM

Question: With `COc1cnc(-c2c(Cl)cnn2C2CC2)nc1NCc1ccc(-c2nc(C(F)(F)F)cn2C)cc1` [Example 192, 2-(4-Chloro-1-cyclopropyl-1H-pyrazol-5-yl)-5-methoxy-N-(4-(1-methyl-4-(trifluoromethyl)-1H-imidazol-2-yl)benzyl)pyrimidin-4-amine] as the molecule, how does the IC50 [1] read?
Answer: The IC50 was 3.8 nM.

Question: And the IC50 [2]?
Answer: Its IC50 is 20.4 nM.

Question: How did the IC50 [1] turn out when `COc1cnc(-c2cncnc2C2CC2)nc1NCc1ccc(-c2nc(C(F)(F)F)cn2C)cc1` [Example 194, 4'-Cyclopropyl-5-methoxy-N-(4-(1-methyl-4-(trifluoromethyl)-1H-imidazol-2-yl)benzyl)-[2,5'-bipyrimidin]-4-amine] was run?
Answer: Its IC50 is 51 nM.

Question: And the IC50 [2]?
Answer: Its IC50 is 58.4 nM.

Question: How did the IC50 [1] turn out when `Cn1cc(C(F)(F)F)nc1-c1ccc(CNc2nc(-c3cncnc3C3CC3)nc3ccoc23)cc1` [Example 196, 2-(4-Cyclopropylpyrimidin-5-yl)-N-(4-(1-methyl-4-(trifluoromethyl)-1H-imidazol-2-yl)benzyl)furo[3,2-d]pyrimidin-4-amine] was run?
Answer: The IC50 was 12 nM.

Question: What about the IC50 [2] of the same molecule?
Answer: The IC50 was 82.1 nM.

Question: With `COc1cnc(-c2c(C)cnn2C2CC2)nc1N(C)Cc1ccc(-c2nc(C(F)(F)F)cn2C)cc1` [Example 198, 2-(1-Cyclopropyl-4-methyl-1H-pyrazol-5-yl)-5-methoxy-N-methyl-N-(4-(1-methyl-4-(trifluoromethyl)-1H-imidazol-2-yl)benzyl)pyrimidin-4-amine] as the molecule, how does the IC50 [1] read?
Answer: Its IC50 is 3.2 nM.

Question: What about the IC50 [2] of the same molecule?
Answer: The IC50 was 5.6 nM.

Question: `COc1cnc(-c2c(C)cnn2C2CC2)nc1NCc1ccc(-c2nc(C(F)(F)F)cn2C)cc1` [Example 199, 2-(1-Cyclopropyl-4-methyl-1H-pyrazol-5-yl)-5-methoxy-N-(4-(1-methyl-4-(trifluoromethyl)-1H-imidazol-2-yl)benzyl)pyrimidin-4-amine] was tested. Which IC50 [1] did it give?
Answer: The IC50 was 5.6 nM.

Question: What about the IC50 [2] of the same molecule?
Answer: Its IC50 is 28.7 nM.

Question: For `COc1cnc(-c2c(C)cnn2C(C)C)nc1N(C)Cc1ccc(-c2nc(C(F)(F)F)cn2C)cc1` [Example 200, 2-(1-Isopropyl-4-methyl-1H-pyrazol-5-yl)-5-methoxy-N-methyl-N-(4-(1-methyl-4-(trifluoromethyl)-1H-imidazol-2-yl)benzyl)pyrimidin-4-amine], which IC50 [1] is on record?
Answer: Its IC50 is 2.8 nM.

Question: And the IC50 [2]?
Answer: Its IC50 is 2.8 nM.

Question: How did the IC50 [1] turn out when `COc1cnc(-c2c(C)cnn2C(C)C)nc1N(C)Cc1ccc(-n2nc(C(F)(F)F)cc2C)cc1` [Example 201, 2-(1-Isopropyl-4-methyl-1H-pyrazol-5-yl)-5-methoxy-N-methyl-N-(4-(5-methyl-3-(trifluoromethyl)-1H-pyrazol-1-yl)benzyl)pyrimidin-4-amine] was run?
Answer: Its IC50 is 12 nM.

Question: And the IC50 [2]?
Answer: The IC50 was 40.5 nM.

Question: Which results are given for `COc1cnc(-c2c(C)cnn2C(C)C)nc1NCc1ccc(-c2nc(C(F)(F)F)cn2C)cc1` [Example 202, 2-(1-Isopropyl-4-methyl-1H-pyrazol-5-yl)-5-methoxy-N-(4-(1-methyl-4-(trifluoromethyl)-1H-imidazol-2-yl)benzyl)pyrimidin-4-amine]?
Answer: IC50 [1]: 3 nM; IC50 [2]: 15.9 nM

Question: `C#Cc1cnc(-c2c(C)cnn2C(C)C)nc1NCc1ccc(-c2nc(C(F)(F)F)cn2C)cc1` [Example 203, 5-Ethynyl-2-(1-isopropyl-4-methyl-1H-pyrazol-5-yl)-N-(4-(1-methyl-4-(trifluoromethyl)-1H-imidazol-2-vl)benzyl)pyrimidin-4-amine] was tested. Which IC50 [1] did it give?
Answer: Its IC50 is 1.4 nM.

Question: And the IC50 [2]?
Answer: The IC50 was 3.3 nM.

Question: What does the source list for `COc1cnc(-c2c(OC)ncnc2C2CC2)nc1N(O)Cc1ccc(-c2nc(C(F)(F)F)cn2C)cc1` [Example 204, N-(4'-cyclopropyl-5,6'-dimethoxy-[2,5'-bipyrimidin]-4-yl)-N-(4-(1-methyl-4-(trifluoromethyl)-1H-imidazol-2-yl)benzyl)hydroxylamine]?
Answer: IC50 [1]: 25 nM; IC50 [2]: 15.7 nM

Question: With `COc1cnc(-c2c(OC)ncnc2C2CC2)nc1N(C)CC12C3C4C1C1C2C3C41c1nc(C(F)(F)F)cn1C` (stereo not drawn) [Example 207, 2-(4-cyclopropyl-6-methoxy-pyrimidin-5-yl)-5-methoxy-N-methyl-N-[[4-[1-methyl-4-(trifluoromethyl)imidazol-2-yl]cuban-1-yl]methyl]pyrimidin-4-amine] as the molecule, how does the IC50 [1] read?
Answer: Its IC50 is 3.5 nM.

Question: What about the IC50 [2] of the same molecule?
Answer: The IC50 was 5.8 nM.

Question: With `COc1cnc(-c2c(Cl)cnn2C(C)C)nc1NCC12CCC(c3nc(C(F)(F)F)cn3C)(CC1)OC2` [Example 209, 2-(4-chloro-1-isopropyl-1H-pyrazol-5-yl)-5-methoxy-N-((1-(1-methyl-4-(trifluoromethyl)-1H-imidazol-2-yl)-2-oxabicyclo[2.2.2]octan-4-yl)methyl)pyrimidin-4-amine] as the molecule, how does the IC50 [1] read?
Answer: The IC50 was 1.6 nM.

Question: What about the IC50 [2] of the same molecule?
Answer: The IC50 was 31.6 nM.

Question: Which results are given for `COc1cnc(-c2c(OC)ncnc2C2CC2)nc1NCC12CCC(c3nc(C(F)(F)F)cn3C)(CC1)OC2` [Example 210]?
Answer: IC50 [1]: 85 nM; IC50 [2]: 169 nM

Question: With `COc1cnc(-c2c(OC)ncnc2C2CC2)nc1NCC12C3C4C1C1C2C3C41c1nc(C(F)(F)F)cn1C` (stereo not drawn) [Example 215] as the molecule, how does the IC50 [1] read?
Answer: Its IC50 is 2.2 nM.

Question: And the IC50 [2]?
Answer: Its IC50 is 8.7 nM.

Question: `COc1cnc(-c2c(OC)ncnc2C2CC2)nc1NCC12C3C4C1C1C2C3C41c1nc(C(F)(F)F)cn1C1CC1` (stereo not drawn) [Example 216, 4'-cyclopropyl-N-((4-(1-cyclopropyl-4-(trifluoromethyl)-1H-imidazol-2-yl)cuban-1-yl)methyl)-5,6'-dimethoxy-[2,5'-bipyrimidin]-4-amine] was tested. Which IC50 [1] did it give?
Answer: Its IC50 is 1.4 nM.

Question: What about the IC50 [2] of the same molecule?
Answer: Its IC50 is 2.7 nM.

Question: Which IC50 [1] does the source give for `[2H]C([2H])([2H])N(c1nc(-c2c(OC)ncnc2C2CC2)ncc1OC)C(C)c1ccc(-c2nc(C(F)(F)F)cn2C)cc1` (stereo not drawn) [Example S3, 4'-Cyclopropyl-5,6'-dimethoxy-N-(methyl-D3)-N-(1-(4-(1-methyl-4-(trifluoromethyl)-1 H-imidazol-2-yl)phenyl)ethyl)-[2,5'-bipyrimidin]-4-amine] here?
Answer: Its IC50 is 2.7 nM.

Question: What about the IC50 [2] of the same molecule?
Answer: The IC50 was 0.3 nM.

Question: Which results are given for `[2H]C([2H])([2H])N(CC12CCC(c3nc(C(F)(F)F)cn3C)(CC1)CC2)c1nc(-c2c(OC)ncnc2C2CC2)ncc1OC` [Example S4, 4'-Cyclopropyl-5,6'-dimethoxy-N-(methyl-d3)-N-((4-(1-methyl-4-(trifluoromethyl)-1H-imidazol-2-yl)bicyclo[2.2.2]oct-1-yl)methyl)-[2,5'-bipyrimidin]-4-amine]?
Answer: IC50 [1]: 4.9 nM; IC50 [2]: 2.3 nM

Question: How did the IC50 [1] turn out when `[2H]C([2H])([2H])Oc1ncnc(C2CC2)c1-c1ncc(OC)c(NCC23CCC(c4nc(C(F)(F)F)cn4C)(CC2)CC3)n1` [Example S5, 4'-Cyclopropyl-5-methoxy-6'-(methoxy-D3)-N-((4-(1-methyl-4-(trifluoromethyl)-1H-imidazol-2-yl)bicyclo[2.2.2]oct-1-yl)methyl)-[2,5'-bipyrimidin]-4-amine] was run?
Answer: Its IC50 is 14 nM.

Question: What about the IC50 [2] of the same molecule?
Answer: The IC50 was 20.2 nM.

Question: `COc1cnc(-c2c(OC)ncnc2C2CC2)nc1NCc1ccc(-c2nc(C(F)(F)F)cn2CC(F)(F)F)cc1` [Example S7, 4'-Cyclopropyl-56'-dimethoxy-N-(4-(1-(2,2,2-trifluoroethyl)-4-(trifluoromethyl)-1H-imidazol-2-yl)benzyl)-[2,5'-bipyrimidin]-4-amine] was tested. Which IC50 [1] did it give?
Answer: The IC50 was 12 nM.

Question: What about the IC50 [2] of the same molecule?
Answer: Its IC50 is 17.1 nM.

Reference: patent EP4741386A1 (Jiangsu Yahong Meditech Co., Ltd., priority 2023, dated 2025)
